In one series the target is T1, h17β-HSD1 (Homo sapiens, UniProt P14061).
T1 construct: h17β-HSD1 was obtained after precipitation with ammonium sulfate from the cytosolic fraction; from tissue; host or cells: human placenta, cytosolic fraction
T1 sequence (P14061 1-328): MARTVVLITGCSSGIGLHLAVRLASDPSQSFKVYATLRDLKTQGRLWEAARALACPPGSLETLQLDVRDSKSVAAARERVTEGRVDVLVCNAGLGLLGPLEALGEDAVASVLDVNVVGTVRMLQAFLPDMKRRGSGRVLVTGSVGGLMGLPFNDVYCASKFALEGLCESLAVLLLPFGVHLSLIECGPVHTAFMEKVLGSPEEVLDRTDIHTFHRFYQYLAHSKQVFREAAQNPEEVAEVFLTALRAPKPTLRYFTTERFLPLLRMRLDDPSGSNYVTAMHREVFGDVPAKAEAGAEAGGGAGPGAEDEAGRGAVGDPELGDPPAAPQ
The series can be described thus: Inhibition of h17β-HSD1 in cell-free assay. Type of series: biochemical. The following applies: human placental cytosolic fraction, substrate E1 [500 nM], cofactor NADH [500 μM]; for inhibition at 1 µM: read-out: % inh. at 1 μM h17β-HSD1. The procedure:
(§1) h17β-HSD2, h17β-HSD1, m17β-HSD2 and m17β-HSD1 cell-free assays were performed similarly, by incubating enzyme, tritiated substrate, cofactor and inhibitor, according to described procedures.
(§2) Cytosolic (h17β-HSD1) and microsomal (h17β-HSD2) fractions were obtained from human placenta according to previously described procedures. Fresh tissue was homogenized and the enzymes were separated from the mitochondria, cell membrane. Nucleus and other rests by fractional centrifugation at 1000 g, 10.000 g and 150.000 g. The pellet fraction containing the microsomal h17β-HSD2 was used for the determination of h17β-HSD2 inhibition, while h17β-HSD1 was obtained after precipitation with ammonium sulfate from the cytosolic fraction for use of testing of h17β-HSD1 inhibition. Aliquots containing h17β-HSD1 or h17β-HSD2 were stored frozen.
The 17β-HSD1 inhibition assay was performed similarly to the h17β-HSD2 test. The human cytosolic enzyme was incubated with NADH [500 μM] while the mouse recombinant enzyme was reacted with NADPH [500 μM].Test compound and a mixture of unlabelled- and [^3H]-E1 (final concentration: 500 nM, 0.15 μCi) were added and mixed for 10 min at 37°C. Further treatment of the samples and HPLC separation was carried out as mentioned above for h17β-HSD2.

A further series concerns the target T2, m17β-HSD2 (Mus musculus, UniProt P51658).
T2 construct: The microsomal fraction (m17β-HSD2) was obtained from mouse liver as described for h17β-HSD2; tissue Pharmacelsus GmbH (mouse livers); host or cells: mouse liver, microsomal fraction
T2 sequence (P51658 1-381): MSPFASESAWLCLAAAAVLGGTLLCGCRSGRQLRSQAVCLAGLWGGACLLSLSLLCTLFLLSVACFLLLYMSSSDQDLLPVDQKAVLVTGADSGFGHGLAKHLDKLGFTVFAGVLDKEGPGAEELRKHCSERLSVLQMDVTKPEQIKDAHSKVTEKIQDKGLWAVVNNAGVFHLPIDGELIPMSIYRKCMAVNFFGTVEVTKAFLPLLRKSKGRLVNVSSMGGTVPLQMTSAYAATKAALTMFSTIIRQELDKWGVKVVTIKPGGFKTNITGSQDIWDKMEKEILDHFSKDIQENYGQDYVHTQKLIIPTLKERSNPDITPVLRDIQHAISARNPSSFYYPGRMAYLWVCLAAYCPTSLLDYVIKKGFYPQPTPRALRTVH
The experiment in a line: Inhibition of m17β-HSD2 in cell-free assay. Type of series: biochemical. The settings on record: for inhibition at 1 µM: read-out: % inh. at 1 μM m17β-HSD2; for % inh. at 1 μM m17β-HSD2: mouse liver microsomal fraction, substrate E2 [500 nM], cofactor NAD+ [1500 μM], Table 1. The procedure: as §1
The microsomal fraction (m17β-HSD2) was obtained from mouse liver as described for h17β-HSD2. Inhibitory activities were evaluated by a method identical to the one described for the human enzyme.
(§3) Inhibitory activities were evaluated following an established method with minor modifications. Briefly, the enzyme preparation was incubated with NAD^+ [1500 μM] in the presence of potential inhibitors at 37C in a phosphate buffer (50 mM) supplemented with 20% of glycerol and EDTA 1mM. Inhibitor stock solutions were prepared in DMSO. Final concentration of DMSO was adjusted to 1% in all samples. […] After 20 min, the incubation was stopped with HgCl2 and the mixture was extracted with ether. After evaporation, the steroids were dissolved in acetonitrile/water (45:55). […] Detection and quantification of the steroids were performed using a radioflow detector (Berthold Technologies, Bad Wildbad). […] Each value was calculated from at least two independent experiments.
On the technique in general: Microsomes from liver hold many membrane-bound enzymes, among them those of drug oxidation.

The next series concerns the target T3, h17β-HSD2 (Homo sapiens, UniProt P37059).
T3 sequence (P37059 1-387): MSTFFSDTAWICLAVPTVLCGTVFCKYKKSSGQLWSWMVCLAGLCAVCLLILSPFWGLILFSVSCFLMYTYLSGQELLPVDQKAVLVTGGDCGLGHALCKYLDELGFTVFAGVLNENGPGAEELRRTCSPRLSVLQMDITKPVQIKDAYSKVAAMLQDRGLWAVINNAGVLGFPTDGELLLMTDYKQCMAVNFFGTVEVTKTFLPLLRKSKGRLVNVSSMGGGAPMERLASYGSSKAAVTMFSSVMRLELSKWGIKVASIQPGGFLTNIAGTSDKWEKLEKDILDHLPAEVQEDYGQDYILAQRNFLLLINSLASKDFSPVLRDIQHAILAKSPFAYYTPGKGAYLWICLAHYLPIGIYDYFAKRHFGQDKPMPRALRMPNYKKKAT
The experiment in a line: Inhibition of h17β-HSD2 in cell-free assay. Type of series: biochemical. Set-up: from tissue; host or cells: human placenta, microsomal fraction. The settings on record: for s.f. (selectivity factor) = IC50(17β-HSD1)/IC50(17β-HSD2): human enzymes, cell-free; for inhibition at 1 µM: read-out: % inh. at 1 μM h17β-HSD2. The procedure:
as §1, §2, §3

SMILES strings stand for the structures.

A word on the IC50: it is the midpoint of a concentration-inhibition curve. Higher therefore signals weaker potency in that assay. What is called melting point is the temperature of the solid-liquid transition.

Consider `COc1cccc(N(C)C(=O)c2ccc(-c3cccc(F)c3)cc2)c1` [Compound 13a, 3'-Fluoro-N-(3-methoxyphenyl)-N-methyl-[1,1'-biphenyl]-4-carboxamide], for which the melting point was in the range of 97 to 100 °C. At h17β-HSD1, this compound showed an IC50 of 8 µM. In addition, the inhibition at 1 µM on m17β-HSD2 was 57%. Further, on h17β-HSD2, inhibition was half-maximal at 1 µM (IC50) and the “s.f. (selectivity factor) = IC50(17β-HSD1)/IC50(17β-HSD2)” value was determined as 8.

As for `COc1cccc(N(C)C(=O)c2ccc(-c3ccc(OC)c(OC)c3)cc2)c1` [Compound 16a, 3',4'-Dimethoxy-N-(3-methoxyphenyl)-N-methyl-[1,1'-biphenyl]-4-carboxamide], the melting point was 153 to 156 °C. Besides, the IC50 on h17β-HSD1 came to 85.5 µM. In addition, the inhibition at 1 µM at m17β-HSD2 came to 52%. For the same compound, on h17β-HSD2, the half-inhibitory concentration (IC50) worked out at 0.52 µM and the “s.f. (selectivity factor) = IC50(17β-HSD1)/IC50(17β-HSD2)” value was 164.

As to `COc1cccc(N(C)C(=O)c2ccc(-c3ccc(C#N)cc3)s2)c1` [Compound 1i], the “% inh. at 1 μM m17β-HSD2” value at m17β-HSD2 is “n.i. (n.i.: no inhibition, i.e., inhibition ≤10%)”.

For the compound `COc1cccc(N(C)C(=O)c2ccc(-c3ccc4c(c3)OCO4)cc2)c1` [Compound 22a, 4-(Benzo[d][1, 3]dioxol-5-yl)-N-(3-methoxyphenyl)-N-methylbenzamide], the melting point was 139 to 141 °C. Also, the inhibition at 1 µM on h17β-HSD1 is less than 10%. On m17β-HSD2, the inhibition at 1 µM is 56%. Also, the inhibition at 1 µM at h17β-HSD2 stood at 51%.

Turning to `CN(C(=O)c1cccc(-c2cccc(O)c2)c1)c1cccc(O)c1` [Compound 4c], the “% inh. at 1 μM m17β-HSD2” value on m17β-HSD2 is listed as “n.i. (n.i.: no inhibition, i.e., inhibition ≤10%)”.

On to `CN(Cc1cccc(O)c1)C(=O)c1cccc(-c2ccc(O)cc2)c1` [Compound 4f], for which the “% inh. at 1 μM m17β-HSD2” value at m17β-HSD2 is 22%.

Regarding `Cc1cccc(-c2ccc(C(=O)N(C)c3cccc(C)c3)cc2)c1` [Compound 3a], the inhibition at 1 µM at m17β-HSD2 worked out at 50%.

Compound `CN(C(=O)c1ccc(-c2cccc(O)c2)cc1)c1cccc(O)c1` [Compound 7, 3'-Hydroxy-N-(3-hydroxyphenyl)-N-methyl-[1,1'-biphenyl]-4-carboxamide] gave a melting point of 168 to 171 °C. Also, the inhibition at 1 µM at h17β-HSD1 amounted to 15%. The inhibition at 1 µM on m17β-HSD2 amounted to 42%. On h17β-HSD2, the inhibition at 1 µM was 36%.

Regarding `COc1cccc(N(C)C(=O)c2ccc(-c3ccccc3)cc2)c1` [Compound 8a, N-(3-methoxyphenyl)-N-methyl-[1,1'-biphenyl]-4-carboxamide], the melting point lay in the range of 102 to 104 °C. In addition, at h17β-HSD1, the inhibition at 1 µM was 22%. The inhibition at 1 µM at m17β-HSD2 was found to be 48%. For the same compound, the inhibition at 1 µM on h17β-HSD2 came to 51%.

For the compound `COc1cccc(C(=O)N(C)c2ccc(-c3cccc(OC)c3)cc2)c1` [Compound 24a, 3-Methoxy-N-(3'-methoxy-[1,1'-biphenyl]-4-yl)-N-methylbenzamide], the inhibition at 1 µM on h17β-HSD1 was less than 10%; on h17β-HSD2 it was 11%.

For `Cc1cccc(-c2ccc(C(=O)N(C)c3cccc(C)c3)s2)c1` [Compound 1b], the “% inh. at 1 μM m17β-HSD2” value at m17β-HSD2 was 42%.

For the compound `COc1ccc(N(C)C(=O)c2ccc(-c3cccc(OC)c3)cc2)cc1` [Compound 11a, 3'-Methoxy-N-(4-methoxyphenyl)-N-methyl-[1,1'-biphenyl]-4-carboxamide], the inhibition at 1 µM on h17β-HSD1 is less than 10%; at m17β-HSD2 it was 58%; on h17β-HSD2 it was 27%.

Regarding `COc1cccc(N(C)C(=O)c2ccc(-c3cccc(F)c3)s2)c1` [Compound 1h], the “% inh. at 1 μM m17β-HSD2” value on m17β-HSD2 is reported as “n.i. (n.i.: no inhibition, i.e., inhibition ≤10%)”.

Take `COc1ccc(-c2cccc(C(=O)N(C)c3cccc(OC)c3)c2)cc1` [Compound 4b]: the “% inh. at 1 μM m17β-HSD2” value on m17β-HSD2 was 11%.

As for `COc1cccc(N(C)C(=O)c2ccc(-c3ccccc3OC)cc2)c1` [Compound 9a, 2'-Methoxy-N-(3-methoxyphenyl)-N-methyl-[1,1'-biphenyl]-4-carboxamide], the values for the inhibition at 1 µM at h17β-HSD1, on m17β-HSD2 and at h17β-HSD2 were less than 10%, 33% and 50%, respectively.

Regarding `COc1cccc(N(C)C(=O)c2ccc(-c3ccccc3OC)s2)c1` [Compound 1d], the “% inh. at 1 μM m17β-HSD2” value at m17β-HSD2 came to 19%.

For the compound `CN(C(=O)c1ccc(-c2ccccc2O)s1)c1cccc(O)c1` [Compound 1f], the “% inh. at 1 μM m17β-HSD2” value at m17β-HSD2 was 18%.

In the case of `COc1cccc(CN(C)C(=O)c2cccc(-c3cccc(OC)c3)c2)c1` [Compound 4d], the “% inh. at 1 μM m17β-HSD2” value at m17β-HSD2 was “n.i. (n.i.: no inhibition, i.e., inhibition ≤10%)”.

`COc1cccc(N(C)C(=O)c2ccc(-c3ccc(F)c(F)c3)cc2)c1` [Compound 18a, 3',4'-Difluoro-N-(3-methoxyphenyl)-N-methyl-[1,1'-biphenyl]-4-carboxamide]: the inhibition at 1 µM on h17β-HSD1 was less than 10%; on h17β-HSD2, 31%.

In the case of `COc1ccc(-c2ccc(C(=O)N(C)c3ccc(OC)cc3)cc2)cc1` [Compound 12a, 4'-Methoxy-N-(4-methoxyphenyl)-N-methyl-[1,1'-biphenyl]-4-carboxamide], the melting point lay in the range of 129 to 132 °C. Further, at h17β-HSD1, the inhibition at 1 µM was less than 10%. Besides, the inhibition at 1 µM at m17β-HSD2 came to 62%. In addition, the inhibition at 1 µM on h17β-HSD2 came out at 19%.

The values are drawn from PMC4521925, “17β-Hydroxysteroid Dehydrogenase Type 2 Inhibition: Discovery of Selective and Metabolically Stable Compounds Inhibiting Both the Human Enzyme and Its Murine Ortholog” (PLoS ONE, 2015).
